Results published in patent US9745314B2, “MDM2 inhibitors and therapeutic methods using the same” (THE REGENTS OF THE UNIVERSITY OF MICHIGAN, priority 2014, dated 2017).
Read-outs that look alike come from different tables or passages of the source.

How the values were obtained:
[1] = Microsomal stability, human; type: in vitro ADME; settings: human microsomes; read-out: Microsomal stability T1/2 (min) Human
RS4; 11 = test: Cell growth assay (WST), RS4;11; type: cell-based; settings: Homo sapiens, RS4-11, 96 h, Leukemia, p53 wild-type, 4 days, read-out: Cell Growth Inhibition (IC50) RS4
[2] = Microsomal stability, dog; type: in vitro ADME; settings: dog microsomes; read-out: Microsomal stability T1/2 (min) Dog
ZR-75-1 = test: Cell growth assay (WST), ZR-75-1; type: cell-based; settings: Homo sapiens, ZR-75-1, 96 h, Breast cancer, p53 wild-type, 4 days, read-out: Cell Growth Inhibition (IC50) ZR-75-1
Method: Cells were seeded in 96-well flat bottom cell culture plates at a density of 2-3×10^3 cells/well with compounds and incubated for 4 days. […] 92037, USA).

[3] = molecular target: T1, recombinant human His-tagged MDM2 protein (residues 1-118) (Homo sapiens, UniProt Q00987); test: biochemical
LNCaP = test: Cell growth assay (WST), LNCaP; type: cell-based; settings: Homo sapiens, 96 h, Prostate cancer, p53 wild-type, 4 days, read-out: Cell Growth Inhibition (IC50) LNCaP
SJSA-1 xenograft tumors = test: In vivo efficacy in SJSA-1 xenograft model; set-up: species or system C.B-17 SCID mice; settings: for anti-tumor activity in mice bearing SJSA-1 xenograft tumors (in words): FIG. 2B
Method: In Vivo Efficacy Studies Using SJSA-Xenograft Models
SJSA-1 (osteosarcoma) tumor cells were harvested with Trypsin (0.05%)-EDTA (0.53 mM) (GIBCO™, Invitrogen Corp.), growth medium was added, and the cells were placed on ice. A cell sample was mixed 1:1 with Trypan Blue (GIBCO™, Invitrogen Corp.) and counted on a hemocytometer to determine the number of live/dead cells. Cells were washed once with 1×PBS (GIBCO™, Invitrogen Corp.) and resuspended in PBS. For Matrigel injections, after washing in PBS, cells are resuspended in an ice cold mixture of 1:1 PBS and Matrigel (BD Biosciences, Invitrogen Corp.) for a final Matrigel protein concentration of 5 mg/ml. SJSA-1 tumors were inoculated into C.B-17 SCID mice at 5×10^6 cells in 0.1 ml with Matrigel. Cells were injected s.c. into the flank region of each mouse using a 27 gauge needle.
The size of tumors growing in the mice was measured in two dimensions using calipers. Tumor volume (mm^3)=(A×B^2)/2 where A and B are the tumor length and width (in mm), respectively. During treatment, tumor volume and body weight was measured three times a week. After the treatment was stopped, tumor volume and body weight was measured at least once a week. Mice were kept for an additional 60 days for further observation of tumor growth and toxicity. The anti-tumor activity of compound No. 8 (administered via oral gavage) at different doses and according to different dosing schedules, including weekly for 3 weeks (qw*3 wks), every other day for 3 weeks, daily for 3 days out of a week for 3 weeks (qd1-3/w*3 wks), and daily for 2 weeks (qd*14 d), is shown in FIG. 3.

PC3 = test: Cell growth assay (WST), PC3; type: cell-based; settings: Homo sapiens, PC-3, 96 h, Prostate cancer, p53 null, 4 days, read-out: Cell Growth Inhibition (IC50) PC3
[4] = test system: HCT116 p53 deleted (HCT116 p53−/−); test: Cell growth assay (WST-8), HCT116 p53 deleted; type: cell-based; settings: Homo sapiens, HCT-116, 96 h, 4 days
[5] = Microsomal stability, rat; type: in vitro ADME; settings: rat microsomes; read-out: Microsomal stability T1/2 (min) Rat
[6] = molecular target: T1, recombinant human His-tagged MDM2 protein (residues 1-118); test: Fluorescence-polarization MDM2 competitive binding assay; settings: for Ki: MDM2 (FP binding assay) Ki(nM), competitive FP
Saos2 = test: Cell growth assay (WST), Saos2; type: cell-based; settings: Homo sapiens, SAOS-2, 96 h, Osteosarcoma, p53 null, 4 days, read-out: Cell Growth Inhibition (IC50) Saos2
HCT116 p53 WT = test: Cell growth assay (WST-8), HCT116 p53 WT; type: cell-based; settings: Homo sapiens, HCT-116, 96 h, 4 days
[7] = Microsomal stability, mouse; type: in vitro ADME; settings: mouse microsomes; read-out: Microsomal stability T1/2 (min) Mouse
[8] = Oral pharmacokinetics in Sprague-Dawley rats; settings: rat, in vivo, 25 mg/kg oral
SJSA-1 cells = test: Cell growth assay (WST-8), SJSA-1; type: cell-based, human; settings: for IC50: Homo sapiens, SJSA-1, 96 h, 4 days
[9] = Stability of compounds in solution (UPLC); type: physicochemical; settings: FIG. 1; 1:1 CH3CN/H2O, 1:1 MeOH/H2O, cell culture media
Method: Stability of Compounds in Solution
The stability of the compounds were determined in 1:1 MeOH:H2O, 1:1 CH3CN:H2O, and cell culture medium using ultra performance liquid chromatography.

[10] = WST-8, read-out: Cell Growth Inhibition IC50 (μM) HCT116 p53 deleted
[11] = Colon cancer, p53 knock-out, WST assay, read-out: Cell Growth Inhibition (IC50) HCT116 p53−/−
[12] = WST-8, read-out: Cell Growth Inhibition IC50 (μM) HCT116 p53 WT
[13] = Colon cancer, p53 wild-type, WST assay, read-out: Cell Growth Inhibition (IC50) HCT116
[14] = WST-8, read-out: Cell Growth Inhibition IC50 (μM) SJSA-1
[15] = Osteosarcoma, p53 wild-type, WST assay, read-out: Cell Growth Inhibition (IC50) SJSA-1

Compound | half-life [1] [min] | half-life [2] [min] | IC50 [3] [nM] | IC50 [4, 10] [µM] | half-life [5] [min] | binding affinity to MDM2 (in words) [6] | IC50 (HCT116 p53 WT; [12]) [µM] | half-life [7] [min] | AUC(0-inf) [8] [ng·h/mL] | AUC(0-t) [8] [ng·h/mL] | Tmax [8] [h] | half-life [8] [h] | IC50 (SJSA-1 cells; [14]) [µM] | Ki [6] [nM] | IC50 (ZR-75-1) [nM] | anti-tumor activity in mice bearing SJSA-1 xenograft tumors (in words) (SJSA-1 xenograft tumors) | cell growth inhibition in SJSA-1 cells (in words) (SJSA-1 cells) | other results
CN1[C@@H](C(=O)NC23CCC(C(=O)O)(CC2)CC3)[C@H](c2cccc(Cl)c2F)[C@]2(C(=O)Nc3cc(Cl)ccc32)C12CCCCC2 [Cpd No. 7] | > 60 | > 60 |  |  | > 60 | high binding affinity |  | > 60 | 35400 ± 15500 | 35200 ± 15200 | 4 | 3.89 ± 1.02 |  |  | 713 ± 165 | complete and persistent tumor regression |  | stability in solutions (in words) [9]: stable in solutions
CS(=O)(=O)NC(=O)C12CCC(NC(=O)[C@@H]3NC4(CCCCC4)[C@@]4(C(=O)Nc5cc(Cl)ccc54)[C@H]3c3cccc(Cl)c3F)(CC1)CC2 [Cpd No. 4] |  |  | 7.9 |  |  |  |  |  |  |  |  |  | 0.373 |  |  |  |  | 
CCN1[C@@H](C(=O)NC23CCC(C(=O)O)(CC2)CC3)[C@H](c2cccc(Cl)c2F)[C@]2(C(=O)Nc3cc(Cl)ccc32)C12CCCCC2 [Cpd No. 8] | > 60 | > 60 |  | 8 ± 1 | > 60 | high binding affinity | 0.104 ± 0.036 | > 60 | 39500 ± 8520 | 39100 ± 8470 | 4 | 4.61 ± 1.35 | 0.06 ± 0.022 |  | 462 ± 36 | complete and persistent tumor regression |  | IC50 (LNCaP): 18 ± 13 nM; IC50 (PC3): 22000 ± 7200 nM; IC50 [4, 11]: 8 ± 1 µM; IC50 (Saos2): 22700 ± 4700 nM; IC50 (HCT116 p53 WT; [13]): 0.104 ± 0.036 µM; IC50 (SJSA-1 cells; [15]): 0.06 ± 0.022 µM; stability in solutions (in words) [9]: stable in solutions
CC1(O)CCC2(CC1)N[C@@H](C(=O)NC13CCC(C(=O)O)(CC1)CC3)[C@H](c1cccc(Cl)c1F)[C@]21C(=O)Nc2cc(Cl)ccc21 (some centres unmarked) [Cpd No. 5] |  |  | 131 |  |  |  |  |  |  |  |  |  |  | 30 |  |  |  | 
O=C(NC12CCC(C(=O)O)(CC1)CC2)[C@@H]1NC2(CCC(F)(F)CC2)[C@@]2(C(=O)Nc3cc(Cl)ccc32)[C@H]1c1cccc(Cl)c1F [Cpd No. 3] |  |  | 8.8 |  |  |  |  |  |  |  |  |  | 0.165 | < 1 |  |  |  | 
O=C(O)c1ccc(NC(=O)[C@@H]2NC3(CCCCC3)[C@@]3(C(=O)Nc4cc(Cl)ccc43)[C@H]2c2cccc(Cl)c2F)cc1 [AA-MI-061, reference compound] |  |  |  |  |  | high binding affinity |  |  |  |  |  |  |  |  |  |  | potent cell growth inhibition | tumor regression (SJSA-1 xenograft tumors; 100 mg/kg, once, daily dosing, SCID mice bearing SJSA-1 xenografts (FIG. 2A)): 90%

The remaining compounds from weak to strong by IC50 [3], led by results:

half-life [1] [min] | half-life [2] [min] | IC50 [3] [nM] | IC50 [4, 10] [µM] | half-life [5] [min] | binding affinity to MDM2 (in words) [6] | IC50 (HCT116 p53 WT; [12]) [µM] | half-life [7] [min] | AUC(0-inf) [8] [ng·h/mL] | AUC(0-t) [8] [ng·h/mL] | Tmax [8] [h] | half-life [8] [h] | IC50 (SJSA-1 cells; [14]) [µM] | Ki [6] [nM] | Compound | IC50 (ZR-75-1) [nM] | anti-tumor activity in mice bearing SJSA-1 xenograft tumors (in words) (SJSA-1 xenograft tumors) | cell growth inhibition in SJSA-1 cells (in words) (SJSA-1 cells) | other results
 |  | 7.3 |  |  |  |  |  |  |  |  |  |  | < 1 | CC1(O)CCC2(CC1)N[C@@H](C(=O)NC13CCC(C(=O)O)(CC1)CC3)[C@H](c1cccc(Cl)c1F)[C@]21C(=O)Nc2cc(Cl)ccc21 (some centres unmarked) [Cpd No. 6] |  |  |  | 
 |  | 5.4 | 12.6 |  | high binding affinity | 3.7 |  |  |  |  |  | 0.48 |  | O=C(NC12CC(C(=O)O)(C1)C2)[C@@H]1NC2(CCCCC2)[C@@]2(C(=O)Nc3cc(Cl)ccc32)[C@H]1c1cccc(Cl)c1F [Cpd No. 1] |  |  | reduced potency | 
> 60 | > 60 | 5.2 | 14 ± 2 | > 60 | high binding affinity | 0.137 ± 0.031 | > 60 | 74300 ± 5260 | 73600 ± 5020 | 3.33 ± 1.15 | 4.29 ± 0.371 | 0.089 ± 0.033 |  | O=C(NC12CCC(C(=O)O)(CC1)CC2)[C@@H]1NC2(CCCCC2)[C@@]2(C(=O)Nc3cc(Cl)ccc32)[C@H]1c1cccc(Cl)c1F [Cpd No. 2] | 677 ± 252 | only modest anti-tumor activity | potent cell growth inhibition activity | IC50 (RS4; 11): 62 ± 26 nM; IC50 (LNCaP): 36 ± 19 nM; IC50 (PC3): 12300 ± 2500 nM; IC50 [4, 11]: 14 ± 2 µM; IC50 (Saos2): 26700 ± 5100 nM; IC50 (HCT116 p53 WT; [13]): 0.137 ± 0.031 µM; Cmax [8]: 8230 ± 278 ng/mL; IC50 (SJSA-1 cells; [15]): 0.089 ± 0.033 µM
 |  | 5.2 | 9 ± 1 |  |  | 0.266 ± 0.127 |  |  |  |  |  | 0.173 ± 0.031 | < 1 | CN1[C@@H](C(=O)NC23CCC(C(N)=O)(CC2)CC3)[C@H](c2cccc(Cl)c2F)[C@]2(C(=O)Nc3cc(Cl)ccc32)C12CCCCC2 [Cpd No. 9] |  |  |  | 
